13 molecules from patent US8663646B2, “P53 peptide vaccine” (priority 2007, dated 2014) can be followed below.

pIC50: −log10 of the molar value. Where no end group is shown, it is not given here.

One assay has as its target T1, HLA-A*1101 (Homo sapiens, UniProt P04439, A114D/D185E/E176A/F33Y/L180Q/S129P/T187R).
T1 construct: B-cell lines used are: CAA (A*0101), EKR (A*0301), BVR (A*1101), VIJF (A*2401); endogenous in cells; host or cells: B-cell line BVR
Briefly: Stability of peptide-HLA complex, binding at 4° C. and 20° C., HLA-A*1101. The following applies: for HLA binding Stability (Table 5): HLA type A11; for Peptide Binding Stability: HLA-A*1101, IC50 at 20° C. vs 4° C. As to the method: (§1) Stability of other peptide-HLA complexes was preferably determined as follows. […] Peptides of >50% of the initial complexes was lost within 2 hours were considered unstable. […] The rest was designated as unstable peptide binding.
(§2) Peptides 8-11 residues in length were selected based on typical anchor residues for HLA-A*0101, A*0301, A*1101 and HLA-A*2401 (Rammensee H G et al). The capacity of peptides to bind was tested in a competition based cellular binding assay as previously described (van der Burg S H et al 1995). FL-labeled reference peptides were synthesized as Cys-derivative (van der Burg S H et al 1995). Fluorescence labeled reference peptides used were: YLEPAC(FL)AK (SEQ ID NO: 87) (HLA-A*0101) and KVFPC(FL)ALINK (SEQ ID NO: 88) (HLA-A*1101) (Sette A et al), KVFPC(FL)ALINK (SEQ ID NO: 89) (HLAA*0301) (van der Burg S H et al 1995) and RYLKC(FL)QQLL (SEQ ID NO: 90) (A*2401) (Dai L C et al). B-cell lines used are: CAA (A*0101), EKR (A*0301), BVR (A*1101), VIJF (A*2401). The relative binding capacity of the peptides is expressed as the peptide concentration to inhibit 50% (1050) of the binding of the reference peptide. […] Peptide stabilization for HLA-A*0201 was performed as previously described (van der Burg S H et al, 1996). Peptides of >50% of the initial complexes was lost within 2 hours were considered unstable. Stability of other peptide-HLA complexes was determined as follows. Peptide binding was performed at 4° C. and 20° C. and 1050 were determined. […] The rest was designated as unstable peptide binding.

Assay [1] concerns the target T2, HLA-A*0301 (Homo sapiens, UniProt P04439).
T2 construct: B-cell lines used are: CAA (A*0101), EKR (A*0301), BVR (A*1101), VIJF (A*2401); endogenous in cells; host or cells: B-cell line EKR
Briefly: Stability of peptide-HLA complex, binding at 4° C. and 20° C., HLA-A*0301. The following applies: for HLA binding Stability (Table 5): HLA type A3; for Peptide Binding Stability: HLA-A*0301, IC50 at 20° C. vs 4° C. As to the method: as §1, §2

Assay [2] has as its target T2, HLA-A*0301. Briefly: Competition based cellular binding assay, HLA-A*0301 (B-cell line EKR). The conditions noted are these: for pIC50: read-out: Peptide Binding Affinity; for HLA binding Affinity (Table 5): HLA type A3.

Consider `C[C@@H](O)[C@H](NC(=O)[C@@H](N)CCCCN)C(=O)N[C@@H](Cc1ccc(O)cc1)C(=O)N[C@@H](CCC(N)=O)C(=O)NCC(=O)N[C@@H](CO)C(=O)N[C@@H](Cc1ccc(O)cc1)C(=O)NCC(=O)N[C@@H](Cc1ccccc1)C(=O)N[C@@H](CCCNC(=N)N)C(=O)O` [p53 101-110], for which, on HLA-A*1101, the “HLA binding Stability (Table 5)” value is “+/− (Peptides that displayed IC50 at 20 °C of more than twice the IC50 at 4 °C but IC50 < 15 μM were considered to bind with intermediate stability.)” and the “Peptide Binding Stability” value was “+/− (Peptides that displayed IC50 at 20 °C of more than twice the IC50 at 4 °C but IC50 < 15 μM were considered to bind with intermediate stability.)”. At HLA-A*0301 [1], the “HLA binding Stability (Table 5)” value was “+/− (Peptides that displayed IC50 at 20 °C of more than twice the IC50 at 4 °C but IC50 < 15 μM were considered to bind with intermediate stability.)” and the “Peptide Binding Stability” value is “+/− (Peptides that displayed IC50 at 20 °C of more than twice the IC50 at 4 °C but IC50 < 15 μM were considered to bind with intermediate stability.)”.

`CC(C)C[C@H](NC(=O)[C@H](C)NC(=O)[C@@H]1CCCN1C(=O)[C@H](CO)NC(=O)[C@H](Cc1ccc(O)cc1)NC(=O)[C@@H](NC(=O)[C@H](CS)NC(=O)[C@@H](NC(=O)[C@@H](N)C(C)C)[C@@H](C)O)[C@@H](C)O)C(=O)N[C@@H](CC(N)=O)C(=O)N[C@@H](CCCCN)C(=O)O` [p53 122-132]: at HLA-A*0301 [2] (HLA-A*0301, IC50 category), the pIC50 was 4.82 to 5.30. Also, on HLA-A*0301 [1], the “Peptide Binding Stability” value is “+ (Stable peptides displayed IC50 at 20 °C that deviated <2 times of the IC50 at 4° C.)”.

For the molecule `CC(C)C[C@H](NC(=O)[C@H](C)NC(=O)[C@@H]1CCCN1C(=O)[C@H](CO)NC(=O)[C@H](Cc1ccc(O)cc1)NC(=O)[C@@H](NC(=O)[C@@H](N)CS)[C@@H](C)O)C(=O)N[C@@H](CC(N)=O)C(=O)N[C@@H](CCCCN)C(=O)O` [p53 124-132], the “Peptide Binding Stability” value at HLA-A*1101 and at HLA-A*0301 [1] was “+ (Stable peptides displayed IC50 at 20 °C that deviated <2 times of the IC50 at 4° C.)” each time.

Regarding `CC[C@H](C)[C@H](NC(=O)[C@H](C)NC(=O)[C@H](CCSC)NC(=O)[C@H](C)NC(=O)[C@H](CCCNC(=N)N)NC(=O)[C@@H](NC(=O)[C@H](CCCNC(=N)N)NC(=O)[C@@H](NC(=O)CN)[C@@H](C)O)C(C)C)C(=O)N[C@@H](Cc1ccc(O)cc1)C(=O)O` [p53 154-163], on HLA-A*0301 [1], the “HLA binding Stability (Table 5)” value was “− (The rest was designated as unstable peptide binding.)” and the “Peptide Binding Stability” value is listed as “− (The rest was designated as unstable peptide binding.)”.

For `CC[C@H](C)[C@H](NC(=O)[C@H](C)NC(=O)[C@H](CCSC)NC(=O)[C@H](C)NC(=O)[C@H](CCCNC(=N)N)NC(=O)[C@@H](NC(=O)[C@H](CCCNC(=N)N)NC(=O)[C@@H](NC(=O)CN)[C@@H](C)O)C(C)C)C(=O)N[C@@H](Cc1ccc(O)cc1)C(=O)N[C@@H](CCCCN)C(=O)O` [p53 154-164], at HLA-A*0301 [1], the “HLA binding Stability (Table 5)” value is “+ (Stable peptides displayed IC50 at 20 °C that deviated <2 times of the IC50 at 4° C.)” and the “Peptide Binding Stability” value is “+ (Stable peptides displayed IC50 at 20 °C that deviated <2 times of the IC50 at 4° C.)”.

Turning to `CC[C@H](C)[C@H](NC(=O)[C@H](C)NC(=O)[C@H](CCSC)NC(=O)[C@H](C)NC(=O)[C@H](CCCNC(=N)N)NC(=O)[C@@H](NC(=O)[C@@H](N)CCCNC(=N)N)C(C)C)C(=O)N[C@@H](Cc1ccc(O)cc1)C(=O)N[C@@H](CCCCN)C(=O)O` [p53 156-164], at HLA-A*1101, the “HLA binding Stability (Table 5)” value is “+ (Stable peptides displayed IC50 at 20 °C that deviated <2 times of the IC50 at 4° C.)” and the “Peptide Binding Stability” value was “+ (Stable peptides displayed IC50 at 20 °C that deviated <2 times of the IC50 at 4° C.)”. Moreover, at HLA-A*0301 [1], the “HLA binding Stability (Table 5)” value is “+ (Stable peptides displayed IC50 at 20 °C that deviated <2 times of the IC50 at 4° C.)” and the “Peptide Binding Stability” value is “+ (Stable peptides displayed IC50 at 20 °C that deviated <2 times of the IC50 at 4° C.)”.

For the molecule `CC(C)[C@H](N)C(=O)N[C@H](C(=O)N[C@@H](CCCNC(=N)N)C(=O)N[C@@H](CCCNC(=N)N)C(=O)N[C@@H](CS)C(=O)N1CCC[C@H]1C(=O)N[C@@H](Cc1c[nH]cn1)C(=O)N[C@@H](Cc1c[nH]cn1)C(=O)N[C@@H](CCC(=O)O)C(=O)N[C@@H](CCCNC(=N)N)C(=O)O)C(C)C` [p53 172-181], at HLA-A*0301 [1], the “HLA binding Stability (Table 5)” value is “+ (Stable peptides displayed IC50 at 20 °C that deviated <2 times of the IC50 at 4° C.)” and the “Peptide Binding Stability” value was “+ (Stable peptides displayed IC50 at 20 °C that deviated <2 times of the IC50 at 4° C.)”.

Take `CC(C)C[C@H](NC(=O)[C@H](Cc1c[nH]cn1)NC(=O)[C@H](CO)NC(=O)[C@H](CO)NC(=O)[C@H](Cc1c[nH]cn1)NC(=O)[C@H](C)NC(=O)[C@@H](N)CCCNC(=N)N)C(=O)N[C@@H](CCCCN)C(=O)N[C@@H](CO)C(=O)N[C@@H](CCCCN)C(=O)N[C@@H](CCCCN)C(=O)O` [p53 363-373]: at HLA-A*0301 [1], the “HLA binding Stability (Table 5)” value was “+ (Stable peptides displayed IC50 at 20 °C that deviated <2 times of the IC50 at 4° C.)” and the “Peptide Binding Stability” value is “+ (Stable peptides displayed IC50 at 20 °C that deviated <2 times of the IC50 at 4° C.)”.

`CSCC[C@H](NC(=O)[C@H](CC(C)C)NC(=O)[C@H](CCCCN)NC(=O)[C@H](CCCCN)NC(=O)[C@H](Cc1c[nH]cn1)NC(=O)[C@H](CCCNC(=N)N)NC(=O)[C@H](CO)NC(=O)[C@@H](NC(=O)[C@@H](N)CO)[C@@H](C)O)C(=O)N[C@@H](Cc1ccccc1)C(=O)N[C@@H](CCCCN)C(=O)O` [p53 376-386]: on HLA-A*0301 [1], the “HLA binding Stability (Table 5)” value is “− (The rest was designated as unstable peptide binding.)” and the “Peptide Binding Stability” value is “+/− (Peptides that displayed IC50 at 20 °C of more than twice the IC50 at 4 °C but IC50 < 15 μM were considered to bind with intermediate stability.)”.

As for GGSRAHSSHLK [p53 360-370], the “HLA binding Affinity (Table 5)” value at HLA-A*0301 [2] is on record as “int”. On HLA-A*0301 [2] (HLA-A*0301, IC50 category), the pIC50 was 4.82 to 5.30. Further, at HLA-A*0301 [1], the “HLA binding Stability (Table 5)” value is given as “− (The rest was designated as unstable peptide binding.)” and the “Peptide Binding Stability” value is “− (The rest was designated as unstable peptide binding.)”.

As for GSRAHSSHLK [p53 361-370], the “HLA binding Affinity (Table 5)” value at HLA-A*0301 [2] is given as “high”. Moreover, the “Peptide Binding Affinity” value on HLA-A*0301 [2] (HLA-A*0301, IC50 category) is on record as “high”. In addition, at HLA-A*0301 [1], the “HLA binding Stability (Table 5)” value was “+ (Stable peptides displayed IC50 at 20 °C that deviated <2 times of the IC50 at 4° C.)” and the “Peptide Binding Stability” value was “+ (Stable peptides displayed IC50 at 20 °C that deviated <2 times of the IC50 at 4° C.)”.

Regarding RAHSSHLKSK [p53 363-372], on HLA-A*0301 [2], the “HLA binding Affinity (Table 5)” value is listed as “int”. In addition, on HLA-A*0301 [2] (HLA-A*0301, IC50 category), the pIC50 was 4.82 to 5.30. Further, on HLA-A*0301 [1], the “HLA binding Stability (Table 5)” value is listed as “− (The rest was designated as unstable peptide binding.)” and the “Peptide Binding Stability” value is “+/− (Peptides that displayed IC50 at 20 °C of more than twice the IC50 at 4 °C but IC50 < 15 μM were considered to bind with intermediate stability.)”.

For RVRAMAIY [p53 156-163], the “HLA binding Affinity (Table 5)” value at HLA-A*0301 [2] is “int”. Further, the pIC50 on HLA-A*0301 [2] (HLA-A*0301, IC50 category) was 4.82 to 5.30. For the same molecule, at HLA-A*0301 [1], the “HLA binding Stability (Table 5)” value is given as “− (The rest was designated as unstable peptide binding.)” and the “Peptide Binding Stability” value is listed as “− (The rest was designated as unstable peptide binding.)”.
